According to article PMC10733463, “Berberine-microbiota interplay: orchestrating gut health through modulation of the gut microbiota and metabolic transformation into bioactive metabolites” (Frontiers in Pharmacology, 2023):

How the values were obtained:
colonic microbiota = test: 16S rRNA gene sequencing, microbiota composition in the colon; type: in vivo, Ross 308 broiler chickens
duodenum = test: Intestinal morphology (villus length, crypt depth) in the duodenum; type: in vivo, Ross 308 broiler chickens; conditions: 21 days
From the text: The study was undertaken following the guidelines of the ethics committee of the Faculty of Veterinary Medicine and Bioscience Engineering, Ghent University, in accordance with the EU Directive 2010/63/EU. […] They were allotted into 4 groups, with three replicate pens per group each housing 8 chickens. The animals were not vaccinated. Water and commercial starter feed (day 1-12, FARM 1 Mash, Country's Best, […], Belgium) or grower (day 13-21, FARM 2 mash, Country's Best, […], Belgium) were provided ad libitum. […] At day 21, 4 birds per pen were weighted then euthanized by sodium pentobarbital injection for sampling. […] Additionally, ileal and caecal content samples were collected and stored at -20°C for berberine and berberine-derived metabolite quantification. […] 24 h formalin-fixed duodenal intestinal tissue segments were embedded in paraffin wax and sectioned at 5 μm, followed by haematoxylin and eosin staining. Villus length and crypt depth were assessed using a PC-based image analysis system (Leica Application Suite V4, LAS V4.; Leica, Diegem Belgium).

[1] = 0.1 g berberine/kg feed vs normal diet, 21 days, LinDA-normalized abundance
[2] = 0.1 g berberine/kg feed, 21 days
[3] = 0.5 g berberine/kg feed vs normal diet, 21 days, LinDA-normalized abundance
[4] = 0.5 g berberine/kg feed, 21 days
[5] = 1 g berberine/kg feed vs normal diet, 21 days, LinDA-normalized abundance

Q: Which results are given for `COc1ccc2cc3[n+](cc2c1OC)CCc1cc2c(cc1-3)OCO2` [Berberine, Berberine chloride]?
A: L2 FC Family_ Peptostreptococcaceae, 0.1 vs 0 (colonic microbiota; [1]): -1.21; L2 FC GCA-900066575, 0.1 vs 0 (colonic microbiota; [1]): 3.13; L2 FC Lachnospiraceae UCG-010, 0.1 vs 0 (colonic microbiota; [1]): 2.34; L2 FC Romboutsia, 0.1 vs 0 (colonic microbiota; [1]): -0.31; L2 FC Ruminococcaceae UCG-014, 0.1 vs 0 (colonic microbiota; [1]): 5.39; L2 FC uncultured genus of Peptostreptococcaceae, 0.1 vs 0 (colonic microbiota; [1]): -1.31; Mean relative abundance (%) Family_ Peptostreptococcaceae (colonic microbiota; [2]): 0.11%; Mean relative abundance (%) GCA-900066575 (colonic microbiota; [2]): 0.59%; Mean relative abundance (%) Lachnospiraceae UCG-010 (colonic microbiota; [2]): 0.06%; Mean relative abundance (%) Romboutsia (colonic microbiota; [2]): 0.14%; Mean relative abundance (%) Ruminococcaceae UCG-014 (colonic microbiota; [2]): 3.36%; Mean relative abundance (%) uncultured genus of Peptostreptococcaceae (colonic microbiota; [2]): 13.82%; Mean relative abundance of Peptostreptococcaceae (colonic microbiota; [2]): 14.07%; L2FC of LinDA-normalized abundance of Peptostreptococcaceae (colonic microbiota; 0.1 vs 0 g berberine/kg feed): -0.79; L2 FC Family_ Peptostreptococcaceae, 0.5 vs 0 (colonic microbiota; [3]): -2.31; L2 FC GCA-900066575, 0.5 vs 0 (colonic microbiota; [3]): 1.10; L2 FC Lachnospiraceae UCG-010, 0.5 vs 0 (colonic microbiota; [3]): 0.64; L2 FC Romboutsia, 0.5 vs 0 (colonic microbiota; [3]): -1.42; L2 FC Ruminococcaceae UCG-014, 0.5 vs 0 (colonic microbiota; [3]): 2.59; L2 FC uncultured genus of Peptostreptococcaceae, 0.5 vs 0 (colonic microbiota; [3]): -1.92; Mean relative abundance (%) Family_ Peptostreptococcaceae (colonic microbiota; [4]): 0.13%; Mean relative abundance (%) GCA-900066575 (colonic microbiota; [4]): 0.53%; Mean relative abundance (%) Lachnospiraceae UCG-010 (colonic microbiota; [4]): 0.03%; Mean relative abundance (%) Romboutsia (colonic microbiota; [4]): 0.11%; Mean relative abundance (%) Ruminococcaceae UCG-014 (colonic microbiota; [4]): 1.19%; Mean relative abundance (%) uncultured genus of Peptostreptococcaceae (colonic microbiota; [4]): 15.49%; Mean relative abundance of Peptostreptococcaceae (colonic microbiota; [4]): 15.73%; L2FC of LinDA-normalized abundance of Peptostreptococcaceae (colonic microbiota; 0.5 vs 0 g berberine/kg feed): -0.94; L2 FC Family_ Peptostreptococcaceae, 1 vs 0 (colonic microbiota; [5]): -6.62; L2 FC GCA-900066575, 1 vs 0 (colonic microbiota; [5]): 2.34; L2 FC Lachnospiraceae UCG-010, 1 vs 0 (colonic microbiota; [5]): 0.99; L2 FC Romboutsia, 1 vs 0 (colonic microbiota; [5]): -6.45; L2 FC Ruminococcaceae UCG-014, 1 vs 0 (colonic microbiota; [5]): 3.32; L2 FC uncultured genus of Peptostreptococcaceae, 1 vs 0 (colonic microbiota; [5]): -9.04; Mean relative abundance (%) Family_ Peptostreptococcaceae (colonic microbiota; 1 g berberine/kg feed, 21 days): 0.01%; Mean relative abundance (%) GCA-900066575 (colonic microbiota; 1 g berberine/kg feed, 21 days): 0.65%; Mean relative abundance (%) Lachnospiraceae UCG-010 (colonic microbiota; 1 g berberine/kg feed, 21 days): 0.06%; Mean relative abundance (%) Romboutsia (colonic microbiota; 1 g berberine/kg feed, 21 days): 0.00%; Mean relative abundance (%) Ruminococcaceae UCG-014 (colonic microbiota; 1 g berberine/kg feed, 21 days): 1.02%; Mean relative abundance (%) uncultured genus of Peptostreptococcaceae (colonic microbiota; 1 g berberine/kg feed, 21 days): 0.50%; Mean relative abundance of Peptostreptococcaceae (colonic microbiota; 1 g berberine/kg feed, 21 days): 0.51%; L2FC of LinDA-normalized abundance of Peptostreptococcaceae (colonic microbiota; 1 vs 0 g berberine/kg feed): -8.67; Observed number of OTUs (colonic microbiota; lowest concentration (0.1 g/kg feed), p = 0.026): significantly increased; Crypt depth (duodenum; 0.1 g berberine/kg feed): 114 ± 21 µm; Villus length (duodenum; 0.1 g berberine/kg feed): 1,678 ± 101 µm; Villus to crypt ratio (duodenum; 0.1 g berberine/kg feed): 15.30 ± 2.50; Crypt depth (duodenum; 0.5 g berberine/kg feed): 104 ± 15 µm; Villus length (duodenum; 0.5 g berberine/kg feed): 1,815 ± 148 µm; Villus to crypt ratio (duodenum; 0.5 g berberine/kg feed): 17.98 ± 2.53; Crypt depth (duodenum; 1 g berberine/kg feed): 103 ± 17 µm; Villus length (duodenum; 1 g berberine/kg feed): 1,820 ± 150 µm; Villus to crypt ratio (duodenum; 1 g berberine/kg feed): 18.31 ± 3.21
